# Legend:
# [1] = system: patients with major depressive disorder; experiment: Open-label trials of adjunctive agomelatine 25 mg at bedtime in MDD (NCT05118750, NCT05157945): MADRS change by EEG-predicted response; assay type: in vivo, human
# Experimental: The inventors conducted two parallel open-label clinical trials of agomelatine at 25 mg once at bedtime in patients with major depressive disorder (NCT05118750 and NCT05157945, whose data was pooled in these analyses). […] Patients were evaluated over the course of eight weeks of treatment.
# EEG data were collected at rest (encompassing both eyes open and eyes closed conditions) prior to treatment using a 19-channel EEG system covering the conventional 10-20 electrode locations. A total of 107 patients with moderate to severe depression (MADRS≥20 and PHQ-9≥10) had EEG data (107 with eyes open (REO) EEG, 105 with eyes closed (REC) EEG). Quality control assessments were conducted, yielding 105 REO patient datasets and 103 REC patient datasets. […] The training dataset consisted of 60 REO patient datasets and 60 REC patient datasets. The holdout set consisted of 49 REO patient datasets and 46 REC patient datasets.
# In order to compile these individual signals into a single EEG composite entropy model for prediction of treatment outcome, the inventors conducted 10-fold cross-validated machine learning using elastic net regularization against an outcome of high versus low response to agomelatine. […]
# The Cohen's d effect sizes at these weeks are all >0.4, indicating a substantial effect size for the prediction, especially considering that the meta-analytically calculated all-comer (i.e., unselected depression patients) effect size for the difference in treatment response to agomelatine (as monotherapy) versus placebo is d=0.26 (Cipriani et al., Lancet., 2018, 391 (10128): 1357-1366, PMID: 29477251).
# Given the approximate 50% prevalence of positivity on the EEG machine learning model, one can estimate the agomelatine-placebo difference in EEG-predicted agomelatine responders by adding the all-comer effect size (d=0.26) to the enrichment in EEG-predicted responders over the all-comer population. This enrichment is calculated by halving the effect size between EEG-predicted responders and non-responders, since the average of these two groups is the all-comer population. […]
# sleep measures = conditions: in contrast to an SSRI which did not change these measures; cited from earlier work
# circadian rhythm = conditions: due to melatonergic agonism; cited from earlier work
# [2] = system: unselected depression patients; conditions: meta-analytically calculated; cited from earlier work
Structure (SMILES),"Cohen's d effect size, predicted responders vs non-responders, change in MADRS scores ([1]; EEG sample entropy machine learning model, cross-validation left-out data of training dataset, all weeks (FIG. 2A))","Cohen's d, predicted agomelatine responders versus non-responders, observed change in MADRS scores ([1]; EEG sample entropy model, holdout dataset, weeks 4, 6 and 8 (FIG. 2B))","MADRS change, high vs low Pz low-gamma sample entropy patients ([1]; Pz electrode, 30-40 Hz, z≥0.27, full study sample, all weeks (FIG. 2C))",sleep measures assessed using actigraphic measurements (sleep measures),effect on circadian rhythm (circadian rhythm),"all-comer effect size d, treatment response to agomelatine (as monotherapy) versus placebo [2]"
"COc1ccc2cccc(CCNC(C)=O)c2c1 [agomelatine, N-[2-(7-methoxynaphthalen-1-yl)ethyl]acetamide]",> 0.4,> 0.4,strong and statistically significant prediction of treatment outcome across all weeks,improve sleep measures,phase advance circadian rhythm,0.26
COc1ccc2[nH]cc(CCNC(C)=O)c2c1 [melatonin],,,,,phase advance circadian rhythm,
